c1cc2c3c(cccc3c1)CC2
solubility (mole fraction)
Details	in acetone	in benzene	in isobutanol	in m-xylene	in n-propanol
283 K	0.0417	0.118	0.00926	0.109	0.00879
288 K	0.0491	0.131	–	0.129	–
288.1 K	–	–	0.0128	–	0.012
293 K	0.0587	–	–	0.143	–
293.2 K	–	0.142	0.0162	–	0.0144
298 K	0.0692	0.162	0.0205	0.163	0.0175
303 K	0.0788	0.187	–	–	–
303.1 K	–	–	–	0.188	–
303.3 K	–	–	0.0253	–	0.0208
308 K	–	–	0.0297	–	0.0246
308.1 K	0.0954	–	–	–	–
308.2 K	–	–	–	0.216	–
308.3 K	–	0.215	–	–	–
313 K	0.113	0.244	–	0.245	–
313.1 K	–	–	0.0353	–	0.0295
318 K	0.136	0.277	0.0435	0.281	0.0364
323 K	0.173	0.312	0.0565	0.321	0.0464
